Experimental data from ChEMBL document CHEMBL5370634, “Synthesis and Antifungal Evaluation of New Azole Derivatives against Candida albicans” (ACS Med Chem Lett, 2023).
≈ marks a conversion by molar mass, not a printed value. Calls of active or inactive are those of the source. No cut-off for these calls is given here.

Experiments:
Candida albicans [1] = assay: Antifungal activity against Candida albicans SC5314FR incubated for 24 hrs in presence of fluconazole by microdilution method; assay type: functional, SC5314
Candida albicans [2] = assay: Antifungal activity against Candida albicans SC5314 incubated for 24 hrs by microdilution method; assay type: functional
Candida albicans [3] = assay: Antifungal activity against Candida albicans SC5314 assessed as fractional inhibitory concentration index incubated for 24 hrs in presence of fluconazole by microdilution method; assay type: functional
Candida albicans [4] = assay: Antifungal activity against Candida albicans SC5314FR incubated for 24 hrs by microdilution method; assay type: functional
Candida albicans [5] = assay: Antifungal activity against Candida albicans SC5314FR assessed as fractional inhibitory concentration index incubated for 24 hrs in presence of fluconazole by microdilution method; assay type: functional
Candida albicans [6] = assay: Antifungal activity against Candida albicans SC5314 incubated for 24 hrs in presence of fluconazole by microdilution method; assay type: functional
Candida albicans [7] = assay: Induction of morphological changes in Candida albicans SC5314 assessed as appearance of unclear cell membrane outline incubated for 16 hrs by TEM analysis; assay type: functional, organism-based; details: dose 0.15-0.6 µg/ml
Candida albicans [8] = assay: Induction of morphological changes in Candida albicans SC5314 assessed as chaotic dissolution of cytoplasm incubated for 16 hrs by TEM analysis; assay type: functional, organism-based; details: dose 0.15-0.6 µg/ml
Candida albicans [9] = assay: Induction of morphological changes in Candida albicans SC5314 assessed as appearance of loose texture incubated for 16 hrs by TEM analysis; assay type: functional, organism-based; details: dose 0.15-0.6 µg/ml
Candida albicans [10] = assay: Induction of cell membrane permeability in Candida albicans SC5314 at 0.15 to 0.6 ug/mL incubated for 16 hrs by […] iodide staining based fluorescence microscopy; assay type: functional, organism-based; details: dose 0.15-0.6 µg/ml
[11] = molecular target: T1, Lanosterol 14-alpha demethylase (Candida albicans (strain SC5314 / ATCC MYA-2876) (Yeast), UniProt P10613); assay: Inhibition of CYP51 in Candida albicans SC5314 assessed as reduction in ergosterol content at 0.15 to 0.6 ug/mL incubated for 16 hrs by spectrophotometry analysis; details: at 0.15 to 0.6 µg/mL, dose 0.15-0.6 µg/ml
Candida albicans [12] = assay: Induction of morphological changes in Candida albicans SC5314 assessed as chaotic dissolution of vacuoles incubated for 16 hrs by TEM analysis; assay type: functional, organism-based; details: dose 0.15-0.6 µg/ml
Candida albicans [13] = assay: Induction of morphological changes in Candida albicans SC5314 assessed as appearance of obvious defects incubated for 16 hrs by TEM analysis; assay type: functional, organism-based; details: dose 0.15-0.6 µg/ml
Candida albicans [14] = assay: Antibiofilm activity against Candida albicans SC5314 assessed as inhibition of biofilm formation at 0.3 ug/mL incubated for 24 hrs in presence of fluconazole by crystal violet staining based inverted microscopy analysis; assay type: functional, organism-based; details: dose 0.3 µg/ml
Candida albicans [15] = assay: Antibiofilm activity against Candida albicans SC5314 assessed as inhibition of biofilm formation at 0.15 to 0.6 ug/mL incubated for 24 hrs by crystal violet staining based inverted microscopy analysis; assay type: functional, organism-based; details: dose 0.15-0.6 µg/ml
Candida albicans [16] = assay: Induction of morphological changes in Candida albicans SC5314 assessed as appearance of blurred boundary between cell wall and cell membrane incubated for 16 hrs by TEM analysis; assay type: functional, organism-based; details: dose 0.15-0.6 µg/ml
Candida albicans [17] = assay: Induction of morphological changes in Candida albicans SC5314 assessed as leaking of intracellular substances incubated for 16 hrs by TEM analysis; assay type: functional, organism-based; details: dose 0.15-0.6 µg/ml
Candida albicans [18] = assay: Induction of morphological changes in Candida albicans SC5314 assessed as appearance of broken slag-like material incubated for 16 hrs by TEM analysis; assay type: functional, organism-based; details: dose 0.15-0.6 µg/ml
Candida albicans [19] = assay: Induction of morphological changes in Candida albicans SC5314 assessed as appearance of incomplete cell wall structure incubated for 16 hrs by TEM analysis; assay type: functional, organism-based; details: dose 0.15-0.6 µg/ml
Candida albicans [20] = assay: Induction of morphological changes in Candida albicans SC5314 assessed as appearance of slightly blurred cytoplasm at 0.3 ug/ml incubated for 16 hrs by TEM analysis; assay type: functional, organism-based; details: dose 0.3 µg/ml
Candida albicans [21] = assay: Induction of cell membrane permeability in Candida albicans SC5314 at 0.3 ug/mL incubated for 16 hrs by […] iodide staining based fluorescence microscopy; assay type: functional, organism-based; details: dose 0.3 µg/ml
[22] = molecular target: T1, Lanosterol 14-alpha demethylase; assay: Inhibition of CYP51 in Candida albicans SC5314 assessed as reduction in ergosterol content at 0.3 ug/mL incubated for 16 hrs by spectrophotometry analysis; details: at 0.3 µg/mL
Candida albicans [23] = assay: Antibiofilm activity against Candida albicans SC5314 assessed as inhibition of biofilm formation at 0.3 ug/mL incubated for 24 hrs by crystal violet staining based inverted microscopy analysis; assay type: functional, organism-based; details: dose 0.3 µg/ml

T1 sequence (P10613 whole entry): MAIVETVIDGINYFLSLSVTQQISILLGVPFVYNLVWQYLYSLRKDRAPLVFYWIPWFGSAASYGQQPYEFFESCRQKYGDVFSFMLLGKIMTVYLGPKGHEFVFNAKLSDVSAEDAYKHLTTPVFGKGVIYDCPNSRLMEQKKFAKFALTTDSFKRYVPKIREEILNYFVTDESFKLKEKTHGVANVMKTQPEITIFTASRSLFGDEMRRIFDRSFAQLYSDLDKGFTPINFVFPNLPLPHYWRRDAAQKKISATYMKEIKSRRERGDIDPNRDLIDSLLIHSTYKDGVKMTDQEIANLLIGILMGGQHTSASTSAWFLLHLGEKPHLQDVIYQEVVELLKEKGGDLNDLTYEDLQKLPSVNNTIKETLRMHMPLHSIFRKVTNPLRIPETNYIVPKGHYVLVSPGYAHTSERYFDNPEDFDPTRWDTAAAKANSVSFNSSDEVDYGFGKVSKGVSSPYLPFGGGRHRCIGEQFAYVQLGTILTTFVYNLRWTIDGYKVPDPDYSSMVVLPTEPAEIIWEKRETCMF

| Compound | MIC50 (Candida albicans [1]) [µg/mL] | MIC50 (Candida albicans [2]) [µg/mL] | fractional inhibitory concentration index (FICI) (Candida albicans [3]) | MIC50 (Candida albicans [4]) [µg/mL] | fractional inhibitory concentration index (FICI) (Candida albicans [5]) | MIC50 (Candida albicans [6]) [µg/mL] | also measured |
| --- | --- | --- | --- | --- | --- | --- | --- |
| CC(=O)N1CCN(c2ccc(OCCN(Cc3ccc(F)c(F)c3)CC(O)(Cn3cncn3)c3ccc(F)cc3F)cc2)CC1 (stereo unspecified) | > 200 | 4.31 (≈ 6.88 µM) | 4.61 | > 200 | 2 | 5.85 | – |
| COc1ccc(C(=O)CN(CCOc2ccc(N3CCN(C(C)=O)CC3)cc2)CC(O)(Cn2cncn2)c2ccc(F)cc2F)cc1OC (stereo unspecified) | > 200 | 35 (≈ 51.5 µM) | 0.71 | > 200 | 2 | 1.22 | – |
| COc1ccc(S(=O)(=O)N(CCOc2ccc(N3CCN(C(C)=O)CC3)cc2)CC(O)(Cn2cncn2)c2ccc(F)cc2F)cc1 (stereo unspecified) | > 200 | 7.27 (≈ 10.8 µM) | 0.5 | > 200 | 2 | 0.72 | – |
| CC(=O)N1CCN(c2ccc(OCCN(Cc3ccc([N+](=O)[O-])cc3)CC(O)(Cn3cncn3)c3ccc(F)cc3F)cc2)CC1 (stereo unspecified) | > 200 | 0.08 (≈ 0.126 µM) | 0.03 | > 200 | 2 | 0.002 | – |
| CC(=O)N1CCN(c2ccc(OCCN(CC(O)(Cn3cncn3)c3ccc(F)cc3F)S(=O)(=O)CCCCl)cc2)CC1 (stereo unspecified) | > 200 | 0.66 (≈ 1.03 µM) | 0.33 | > 200 | 2 | 0.16 | – |
| CC(=O)N1CCN(c2ccc(OCCN(CC(O)(Cn3cncn3)c3ccc(F)cc3F)C(=O)c3ccccc3Cl)cc2)CC1 (stereo unspecified) | > 200 | 11.3 (≈ 17.8 µM) | 1.61 | > 200 | 2 | 2.5 | – |
| CC(=O)N1CCN(c2ccc(OCCN(CC(O)(Cn3cncn3)c3ccc(F)cc3F)S(=O)(=O)c3ccc(Br)cc3)cc2)CC1 (stereo unspecified) | > 200 | 0.2 (≈ 0.278 µM) | 0.22 | > 200 | 2 | 0.04 | – |
| CC(=O)N1CCN(c2ccc(OCCN(Cc3ccc(Br)cc3)CC(O)(Cn3cncn3)c3ccc(F)cc3F)cc2)CC1 (stereo unspecified) | > 200 | 5.71 (≈ 8.53 µM) | 1.58 | > 200 | 2 | 2.17 | – |
| CC(=O)N1CCN(c2ccc(OCCN(Cc3ccc(C(F)(F)F)cc3)CC(O)(Cn3cncn3)c3ccc(F)cc3F)cc2)CC1 (stereo unspecified) | > 200 | 1.83 (≈ 2.78 µM) | 1.94 | > 200 | 2 | 1.76 | – |
| CC(=O)N1CCN(c2ccc(OCCN(CC(O)(Cn3cncn3)c3ccc(F)cc3F)C(=O)c3cc(F)c(F)c(F)c3F)cc2)CC1 (stereo unspecified) | > 200 | 0.31 (≈ 0.458 µM) | 0.53 | > 200 | 2 | 0.14 | – |
| CC(=O)N1CCN(c2ccc(OCCN(CC(O)(Cn3cncn3)c3ccc(F)cc3F)C(=O)c3ccc(Cl)cc3)cc2)CC1 (stereo unspecified) | 147 | 6.79 (≈ 10.6 µM) | 0.64 | > 200 | 0.73 | 0.91 | – |
| CC(=O)N1CCN(c2ccc(OCCN(CC(O)(Cn3cncn3)c3ccc(F)cc3F)S(=O)(=O)c3ccc(Cl)cc3)cc2)CC1 (stereo unspecified) | > 200 | 8.49 (≈ 12.6 µM) | 2.61 | 33.2 (≈ 49.2 µM) | 13.42 | 3.88 | – |
| CC(=O)N1CCN(c2ccc(OCCN(Cc3ccc(Cl)cc3)CC(O)(Cn3cncn3)c3ccc(F)cc3F)cc2)CC1 (stereo unspecified) | > 200 | 9.32 (≈ 14.9 µM) | 3.88 | > 200 | 2 | 5.85 | – |
| CC(=O)N1CCN(c2ccc(OCCN(CC(O)(Cn3cncn3)c3ccc(F)cc3F)C(=O)c3ccc(C(F)(F)F)cc3)cc2)CC1 (stereo unspecified) | > 200 | 17.9 (≈ 26.6 µM) | 2.03 | > 200 | 2 | 3.32 | – |
| C=CCN(CCOc1ccc(N2CCN(C(C)=O)CC2)cc1)CC(O)(Cn1cncn1)c1ccc(F)cc1F (stereo unspecified) | 95.7 | 7.13 (≈ 13.2 µM) | 1.51 | 115 (≈ 213 µM) | 1.07 | 2.17 | – |
| CC(=O)N1CCN(c2ccc(OCCN(CC(O)(Cn3cncn3)c3ccc(F)cc3F)C(=O)CCCl)cc2)CC1 (stereo unspecified) | 190 | 19.4 (≈ 32.9 µM) | 1.11 | > 200 | 0.95 | 1.83 | – |
| CC(=O)N1CCN(c2ccc(OCCN(CC(O)(Cn3cncn3)c3ccc(F)cc3F)C(=O)c3c(Cl)cccc3Cl)cc2)CC1 (stereo unspecified) | > 200 | 6.25 (≈ 9.28 µM) | 0.4 | > 200 | 2 | 0.56 | – |
| CC(=O)N1CCN(c2ccc(OCCN(CC(O)(Cn3cncn3)c3ccc(F)cc3F)S(=O)(=O)c3ccc(F)cc3)cc2)CC1 (stereo unspecified) | > 200 | 0.1 (≈ 0.152 µM) | 1.69 | > 200 | 2 | 0.16 | – |
| C#CCN(CCOc1ccc(N2CCN(C(C)=O)CC2)cc1)CC(O)(Cn1cncn1)c1ccc(F)cc1F (stereo unspecified) | > 200 | 9.31 (≈ 17.3 µM) | 2.27 | > 200 | 2 | 3.42 | – |
| CC(=O)N1CCN(c2ccc(OCCN(CC(O)(Cn3cncn3)c3ccc(F)cc3F)S(=O)(=O)c3ccc(Cl)cc3Cl)cc2)CC1 (stereo unspecified) | > 200 | 0.02 (≈ 0.0282 µM) | 4.55 | > 200 | 2 | 0.09 | Activity (Candida albicans [7]): Dose-Dependent Effect; Activity (Candida albicans [8]): Dose-Dependent Effect; Activity (Candida albicans [9]): Dose-Dependent Effect; Activity (Candida albicans [10]): Active; inhibition (INH) [11]: Active; Activity (Candida albicans [12]): Dose-Dependent Effect; Activity (Candida albicans [13]): Dose-Dependent Effect; inhibition (Candida albicans [14]): Active; inhibition (Candida albicans [15]): Active; Activity (Candida albicans [16]): Dose-Dependent Effect; Activity (Candida albicans [17]): Dose-Dependent Effect; Activity (Candida albicans [18]): Dose-Dependent Effect; Activity (Candida albicans [19]): Dose-Dependent Effect |
| OC(Cn1cncn1)(Cn1cncn1)c1ccc(F)cc1F [FLUCONAZOLE] | – | 1.8 (≈ 5.88 µM) | – | > 200 | – | – | Activity (Candida albicans [20]): Active; Activity (Candida albicans [21]): inactive; inhibition (INH) [22]: Not Active; inhibition (Candida albicans [23]): inactive |
| CC(=O)N1CCN(c2ccc(OCCN(Cc3ccc(C#N)cc3)CC(O)(Cn3cncn3)c3ccc(F)cc3F)cc2)CC1 (stereo unspecified) | > 200 | 0.99 (≈ 1.61 µM) | 1.08 | > 200 | 2 | 0.68 | – |
| CC(=O)N1CCN(c2ccc(OCCN(CC(O)(Cn3cncn3)c3ccc(F)cc3F)S(=O)(=O)c3ccc(OC(F)(F)F)cc3)cc2)CC1 (stereo unspecified) | > 200 | 0.84 (≈ 1.16 µM) | 0.45 | > 200 | 2 | 0.26 | – |
